Legend:
Glucocorticoid receptor [1] = biological target: T1, Glucocorticoid receptor (Rattus norvegicus, UniProt P06536); test: Antagonist activity at glucocorticoid receptor in rat hepatocytes assessed as inhibition of dexamethasone-induced […] expression incubated for 30 mins prior to dexamethasone-induction measured after 4 hrs by reporter gene assay; format: functional, cell-based, Hepatocyte
T1 sequence (P06536 whole entry): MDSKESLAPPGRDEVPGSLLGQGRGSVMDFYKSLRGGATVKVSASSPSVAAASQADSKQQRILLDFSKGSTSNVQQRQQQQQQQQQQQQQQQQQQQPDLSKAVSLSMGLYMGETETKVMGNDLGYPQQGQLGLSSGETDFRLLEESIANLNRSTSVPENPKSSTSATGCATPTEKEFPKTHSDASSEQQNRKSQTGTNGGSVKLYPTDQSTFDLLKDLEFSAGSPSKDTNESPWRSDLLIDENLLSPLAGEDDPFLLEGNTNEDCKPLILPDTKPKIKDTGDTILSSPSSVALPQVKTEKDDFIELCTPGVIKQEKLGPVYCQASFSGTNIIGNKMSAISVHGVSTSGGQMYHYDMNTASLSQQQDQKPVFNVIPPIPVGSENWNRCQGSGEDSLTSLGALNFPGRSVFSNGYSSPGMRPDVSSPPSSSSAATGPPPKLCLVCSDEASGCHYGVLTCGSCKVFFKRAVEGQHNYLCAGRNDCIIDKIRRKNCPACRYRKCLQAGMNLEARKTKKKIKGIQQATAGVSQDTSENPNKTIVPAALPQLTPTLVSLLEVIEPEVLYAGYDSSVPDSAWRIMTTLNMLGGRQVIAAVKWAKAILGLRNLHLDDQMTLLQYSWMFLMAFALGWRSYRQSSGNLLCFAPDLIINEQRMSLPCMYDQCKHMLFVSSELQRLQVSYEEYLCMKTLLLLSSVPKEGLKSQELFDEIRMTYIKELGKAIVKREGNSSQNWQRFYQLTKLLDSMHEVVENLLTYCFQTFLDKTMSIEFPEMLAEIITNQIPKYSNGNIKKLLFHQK

Glucocorticoid receptor [2] = biological target: T2, Glucocorticoid receptor (Homo sapiens, UniProt P04150); test: Displacement of [3H]dexamethasone from human glucocorticoid receptor expressed in baculovirus infected Sf9 cells after overnight incubation by scintillation counting
T2 sequence (P04150 whole entry): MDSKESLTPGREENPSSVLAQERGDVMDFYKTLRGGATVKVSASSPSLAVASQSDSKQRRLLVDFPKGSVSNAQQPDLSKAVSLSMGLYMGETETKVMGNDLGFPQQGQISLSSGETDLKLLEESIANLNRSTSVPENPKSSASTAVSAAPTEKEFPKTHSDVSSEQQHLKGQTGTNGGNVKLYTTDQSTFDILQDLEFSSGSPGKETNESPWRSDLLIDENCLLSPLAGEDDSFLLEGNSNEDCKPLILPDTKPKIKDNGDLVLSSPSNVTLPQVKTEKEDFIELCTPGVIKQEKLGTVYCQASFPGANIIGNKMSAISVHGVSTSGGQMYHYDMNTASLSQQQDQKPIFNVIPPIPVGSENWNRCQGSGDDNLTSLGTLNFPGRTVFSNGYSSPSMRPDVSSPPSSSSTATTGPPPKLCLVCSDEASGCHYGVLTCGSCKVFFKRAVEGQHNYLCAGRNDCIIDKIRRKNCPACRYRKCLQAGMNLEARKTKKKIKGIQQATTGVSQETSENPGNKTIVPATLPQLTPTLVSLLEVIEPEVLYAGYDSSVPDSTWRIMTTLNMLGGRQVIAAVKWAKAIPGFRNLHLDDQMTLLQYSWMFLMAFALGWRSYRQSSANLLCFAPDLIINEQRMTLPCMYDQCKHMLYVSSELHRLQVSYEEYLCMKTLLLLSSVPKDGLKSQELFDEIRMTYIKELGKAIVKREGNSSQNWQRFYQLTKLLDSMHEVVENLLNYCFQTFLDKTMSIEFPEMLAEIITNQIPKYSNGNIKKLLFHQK

Glucocorticoid receptor [3] = biological target: T2, Glucocorticoid receptor; test: Antagonist activity at human glucocorticoid receptor expressed in GRAF cells assessed as inhibition of dexamethasone-induced alkaline phosphatase expression after 48 hrs by reporter gene assay; format: functional, cell-based

Structure (SMILES)	IC50 (Glucocorticoid receptor [1])	IC50 (Glucocorticoid receptor [2])	IC50 (Glucocorticoid receptor [3])
O=C(O)Cc1cc(Br)c(N(Cc2ccc(Oc3ccccc3Cl)cc2)Cc2cc(F)cc(F)c2)c(Br)c1	3000 nM	235 nM	512 nM
O=C(O)Cc1cc(Br)c(N(Cc2ccc(Oc3ccccc3)cc2)Cc2cc(F)cc(F)c2)c(Br)c1	3900 nM	722 nM	1050 nM
Cc1ccc(Oc2ccc(CN(Cc3cc(F)cc(F)c3)c3c(Br)cc(CC(=O)O)cc3Br)cc2)c(C)c1		1640 nM	

The remaining compounds from weak to strong by IC50 (Glucocorticoid receptor [2]), led by results:

IC50 (Glucocorticoid receptor [1])	IC50 (Glucocorticoid receptor [2])	IC50 (Glucocorticoid receptor [3])	Structure (SMILES)
> 10000 nM	879 nM	1420 nM	O=C(O)Cc1cc(Br)c(N(Cc2ccc(Oc3ccc(Br)cc3Br)cc2)Cc2cc(F)cc(F)c2)c(Br)c1
2100 nM	145 nM	46 nM	O=C(O)Cc1cc(Br)c(N(Cc2ccc(Oc3ccccc3F)cc2)Cc2cc(F)cc(F)c2)c(Br)c1
